# In US10947196B2, “Beta adrenergic agonist and methods of using the same” (CURASEN THERAPEUTICS, INC., priority 2019, dated 2021):
# Biological target: β1-adrenergic receptor (Homo sapiens (Human), UniProt P08588)
# Test: cAMP Gs dynamic HTRF assay, β1 expressing CHO cells
# Type: cell-based
# Details: Average pEC50 [Receptor subtype: B1-AR; Cell type: CHO-K1 (HitHunter)], B1-AR; CHO-K1 (HitHunter)
# Method: (§1) cAMP homogeneous time-resolved fluorescence (HTRF). Compound efficacy was determined using the cAMP Gs dynamic HTRF assay (Cisbio, catalog #62AM4PEC) largely following the manufacturer's instructions, also detailed below.
# (§2) Compound preparation. […] Standard serial dilution curves were 10-point, 5-fold dilutions starting from a highest concentration of 10 μM. […] Assay plates were centrifuged at 500×g for 10 seconds. Compounds and IBMX were prepared at 2× final dose to compensate for addition of cells.
# (§3) Cell preparation. 1× stimulation buffer, washing PBS (Dulbecco's phosphate-buffered saline, −Mg −Ca; Caisson Labs, catalog #PBL01), assay PBS (Dulbecco's phosphate-buffered saline, +Mg, +Ca; Caisson Labs, catalog #PBL02) and Versene (0.02% EDTA disodium salt solution in PBS without calcium or magnesium; Caisson Labs, catalog #EDL01) were pre-warmed to 37° C. Cells expressing beta-adrenergic receptor were washed in washing PBS to remove growth medium and then released from the surface by incubating with Versene for 5-10 minutes at 37° C. Cells were harvested using assay PBS, counted manually by hemocytometer or by an automated cell counter, pelleted by centrifugation (200×g, 5 minutes) and resuspended in 37° C. 1× stimulation buffer to a final density of 1.5×10^6 cells/mL. 5 μL of the suspended cell solution (7500 cell total) were added to all wells of the 384 well assay plate, the assay plate was covered with an Axygen® plate seal (Corning PCR-SP) and incubated in a humidified 37° C. environment supplemented with 5% CO2 for 30 minutes.
# (§4) HTRF reagent addition, reading and data analysis. After 30 minutes of cell stimulation with test compound, the assay plates were centrifuged at 500×g for 10 seconds, and incubation was stopped with the addition of 5 μL cAMP-D2 acceptor, diluted 1:21 in detection and lysis buffer 2 (Cisbio 62CL2FDF) was added to all cells. Subsequently, 5 μL Anti-cAMP-Eu Donor, diluted 1:21 in detection and lysis buffer 2, was added to cells. Plates were sealed and reactions gently ‘vortexed’ at 900 rpm on a Heidolph Titramax 1000 for at least 30 minutes at room temperature. Plates were centrifuged again at 500×g for 10 seconds, and HTRF was measured using a Tecan Spark plate reader at 50 flashes per well. […] Potency estimates (EC50) were derived from the four-parameter nonlinear regression of the concentration-effect curve and an estimate of relative efficacy was determined by comparing the magnitude of the test compound HTRF signal window (min−max dose) with the signal window of the full agonist control, isoproterenol.
# Sequence of β1-adrenergic receptor (P08588 whole entry, species assumed): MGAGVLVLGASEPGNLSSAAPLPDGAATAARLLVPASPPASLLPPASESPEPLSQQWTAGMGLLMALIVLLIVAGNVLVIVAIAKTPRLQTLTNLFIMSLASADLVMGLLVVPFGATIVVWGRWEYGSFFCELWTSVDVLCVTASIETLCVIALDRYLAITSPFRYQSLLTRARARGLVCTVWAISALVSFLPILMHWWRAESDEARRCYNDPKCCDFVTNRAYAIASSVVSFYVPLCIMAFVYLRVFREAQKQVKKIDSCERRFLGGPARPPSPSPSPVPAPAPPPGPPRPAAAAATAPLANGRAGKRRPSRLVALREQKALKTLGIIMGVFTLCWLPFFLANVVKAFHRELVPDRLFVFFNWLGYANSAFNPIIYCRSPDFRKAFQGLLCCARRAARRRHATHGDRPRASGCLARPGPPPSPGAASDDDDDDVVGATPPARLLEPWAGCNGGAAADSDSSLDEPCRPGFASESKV
row,Compound,EC50
1,COc1ccc(C[C@@H](C)NC[C@H](O)c2cc(F)cnc2C)cc1 [Compound 03-260],> 1000 nM
2,COc1ccc(C[C@@H](C)NC[C@H](O)c2ccc(NC3CC3)nc2C)cc1 [Compound 03-275],> 1000 nM

# Same assay, conditions: B1-AR; CHO-K1 (HitHunter)
row,Compound,Average pEC50 [Receptor subtype: B1-AR; Cell type: CHO-K1 (HitHunter)]
1,CC(C)(C)NC[C@@H](O)c1cccc(-n2cccc2)n1 [Compound 03-124],C (C = <7-6)
2,CC(C)(C)NC[C@H](O)c1cccc(-c2cccc(F)c2)n1 [Compound 03-131],B (B = 8-7)
3,CC(C)(C)NC[C@H](O)c1cccc(-c2nnn[nH]2)n1 [Compound 03-18],D (D < 6)
4,CC(C)(C)NC[C@H](O)c1cccnc1N1CCCC1 [Compound 03-60],D (D < 6)
5,CC(C)(C)NC[C@@H](O)c1cccc(-c2cccc(F)c2)n1 [Compound 03-132],D (D < 6)
6,CC(C)(C)NC[C@@H](O)c1cccc(-c2cccc(Cl)c2)n1 [Compound 03-130],C (C = <7-6)
7,CN1CCN(c2cccc([C@@H](O)CNC(C)(C)C)n2)CC1 [Compound 03-139],D (D < 6)
8,CC(C)(C)NC[C@H](O)c1cccc(-c2ccc(Cl)cc2)n1 [Compound 03-119],C (C = <7-6)

# Same assay, conditions: B1-AR; CHO-K1 (HitHunter); read-out: Average pEC50 [Receptor subtype: B1-AR; Cell type: CHO-K1 (HitHunter)] (converted)
row,Compound,EC50
1,Cc1cc([C@H](O)CNC(C)(C)C)ccn1 [Compound 03-109],100 to 1000 nM
2,CC(C)(C)NC[C@H](O)c1cccc(-c2ccc(F)cc2)n1 [Compound 03-145],10 to 100 nM
3,CC(C)(C)NC[C@@H](O)c1cccc(-n2cccn2)n1 [Compound 03-225],100 to 1000 nM
4,CC(C)(C)NC[C@@H](O)c1cccc(OC(F)(F)F)n1 [Compound 03-186],> 1000 nM
5,CNC(=O)c1cccc([C@@H](O)CNC(C)(C)C)n1 [Compound 03-85],> 1000 nM
6,Cc1nc(C2CC2)ccc1[C@@H](O)CNC(C)(C)C [Compound 03-268],10 to 100 nM
7,CC(C)(C)NC[C@H](O)c1cccnc1-n1ccnn1 [Compound 03-241],> 1000 nM
8,CC(C)(C)NC[C@H](O)c1cccc(Cl)n1 [Compound 03-231],> 1000 nM
9,CC(C)(C)NC[C@H](O)c1cccnc1C1CCC1 [Compound 03-68],100 to 1000 nM
10,CC(C)(C)NC[C@H](O)c1cccnc1-c1c[nH]nn1 [Compound 03-76],100 to 1000 nM
11,[2H]C([2H])([2H])Nc1cccc([C@@H](O)CNC(C)(C)C)n1 [Compound 03-279],> 1000 nM
12,Cc1nc(NC2CC2)ccc1[C@@H](O)CNC(C)(C)C [Compound 03-274],> 1000 nM
13,CC(C)(C)NC[C@H](O)c1cccc(N)n1 [Compound 03-98],> 1000 nM
14,Cc1cc([C@H](O)CNC(C)(C)C)nc(C(F)(F)F)c1 [Compound 03-20],> 1000 nM
15,CC(C)NC[C@@H](O)c1cccc(C(F)(F)F)n1 [Compound 03-36],> 1000 nM
16,Cc1ncc([C@@H](O)CNC(C)(C)C)c(C)n1 [Compound 03-261],> 1000 nM
17,CC(C)(C)NC[C@H](O)c1cc(C(F)(F)F)cnc1C1CCCC1 [Compound 03-78],< 10 nM
18,CC(C)(C)NC[C@@H](O)c1cccc(N2CCCCC2)n1 [Compound 03-138],> 1000 nM
19,CCN(CC)c1cccc([C@@H](O)CNC(C)(C)C)n1 [Compound 03-159],10 to 100 nM

# Same assay, conditions: B1-AR; CHO-K cells; read-out: Average EC50 [Receptor subtype: B1-AR; Cell type: CHO-K]
row,Compound,EC50
1,CC(C)(C)NC[C@H](O)c1cccc(-c2ccc(F)cc2)n1 [Compound 03-145],10 to 100 nM
2,CC(C)(C)NC[C@@H](O)c1cccc(OC(F)(F)F)n1 [Compound 03-186],> 1000 nM
3,CC(C)(C)NC[C@@H](O)c1cccc(-n2cccc2)n1 [Compound 03-124],100 to 1000 nM
4,CC(C)(C)NC[C@H](O)c1cccc(-c2cccc(F)c2)n1 [Compound 03-131],10 to 100 nM
5,CC(C)(C)NC[C@H](O)c1cccc(-c2nnn[nH]2)n1 [Compound 03-18],> 1000 nM
6,CC(C)(C)NC[C@H](O)c1cccnc1N1CCCC1 [Compound 03-60],> 1000 nM
7,CC(C)(C)NC[C@@H](O)c1cccc(-c2cccc(F)c2)n1 [Compound 03-132],> 1000 nM
8,Cc1cc([C@H](O)CNC(C)(C)C)nc(C(F)(F)F)c1 [Compound 03-20],> 1000 nM
9,CC(C)NC[C@@H](O)c1cccc(C(F)(F)F)n1 [Compound 03-36],> 1000 nM
10,CC(C)(C)NC[C@@H](O)c1cccc(-c2cccc(Cl)c2)n1 [Compound 03-130],100 to 1000 nM
11,CC(C)(C)NC[C@@H](O)c1cccc(N2CCCCC2)n1 [Compound 03-138],> 1000 nM
12,CCN(CC)c1cccc([C@@H](O)CNC(C)(C)C)n1 [Compound 03-159],10 to 100 nM
13,CN1CCN(c2cccc([C@@H](O)CNC(C)(C)C)n2)CC1 [Compound 03-139],> 1000 nM
14,CC(C)(C)NC[C@H](O)c1cccc(-c2ccc(Cl)cc2)n1 [Compound 03-119],100 to 1000 nM

# Biological target: β2 adrenergic receptor (Homo sapiens (Human), UniProt P07550)
# Sequence (P07550 whole entry, species assumed): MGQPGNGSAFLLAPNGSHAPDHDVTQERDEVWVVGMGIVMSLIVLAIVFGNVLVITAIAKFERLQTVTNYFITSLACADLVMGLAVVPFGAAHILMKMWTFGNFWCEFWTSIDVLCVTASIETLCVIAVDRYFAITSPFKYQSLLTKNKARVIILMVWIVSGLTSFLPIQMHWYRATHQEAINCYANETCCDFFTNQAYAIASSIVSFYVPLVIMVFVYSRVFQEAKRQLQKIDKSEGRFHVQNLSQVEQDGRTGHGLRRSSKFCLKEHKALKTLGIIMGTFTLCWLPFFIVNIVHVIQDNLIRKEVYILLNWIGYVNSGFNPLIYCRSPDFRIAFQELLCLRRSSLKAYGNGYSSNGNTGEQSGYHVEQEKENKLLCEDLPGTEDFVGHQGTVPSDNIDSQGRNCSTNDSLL
# Test: cAMP Gs dynamic HTRF assay, β2 expressing CHO cells
# Type: cell-based
# Details: Average pEC50 [Receptor subtype: B2-AR; Cell type: CHO-K1 (HitHunter)], B2-AR; CHO-K1 (HitHunter)
# Method: as §1, §2, §3, §4
row,Compound,EC50
1,COc1ccc(C[C@@H](C)NC[C@H](O)c2cc(F)cnc2C)cc1 [Compound 03-260],< 10 nM
2,COc1ccc(C[C@@H](C)NC[C@H](O)c2ccc(NC3CC3)nc2C)cc1 [Compound 03-275],10 to 100 nM

# Same assay, conditions: B2-AR; CHO-K1 (HitHunter); read-out: Average pEC50 [Receptor subtype: B2-AR; Cell type: CHO-K1 (HitHunter)] (converted)
row,Compound,EC50
1,Cc1cc([C@H](O)CNC(C)(C)C)ccn1 [Compound 03-109],100 to 1000 nM
2,CC(C)(C)NC[C@H](O)c1cccc(-c2ccc(F)cc2)n1 [Compound 03-145],< 10 nM
3,CC(C)(C)NC[C@@H](O)c1cccc(-n2cccn2)n1 [Compound 03-225],100 to 1000 nM
4,CC(C)(C)NC[C@@H](O)c1cccc(OC(F)(F)F)n1 [Compound 03-186],100 to 1000 nM
5,CNC(=O)c1cccc([C@@H](O)CNC(C)(C)C)n1 [Compound 03-85],100 to 1000 nM
6,CC(C)(C)NC[C@@H](O)c1cccc(-n2cccc2)n1 [Compound 03-124],10 to 100 nM
7,CC(C)(C)NC[C@H](O)c1cccc(-c2cccc(F)c2)n1 [Compound 03-131],< 10 nM
8,Cc1nc(C2CC2)ccc1[C@@H](O)CNC(C)(C)C [Compound 03-268],< 10 nM
9,CC(C)(C)NC[C@H](O)c1cccnc1-n1ccnn1 [Compound 03-241],> 1000 nM
10,CC(C)(C)NC[C@H](O)c1cccc(Cl)n1 [Compound 03-231],10 to 100 nM
11,CC(C)(C)NC[C@H](O)c1cccnc1C1CCC1 [Compound 03-68],10 to 100 nM
12,CC(C)(C)NC[C@H](O)c1cccnc1N1CCCC1 [Compound 03-60],> 1000 nM
13,CC(C)(C)NC[C@H](O)c1cccnc1-c1c[nH]nn1 [Compound 03-76],100 to 1000 nM
14,[2H]C([2H])([2H])Nc1cccc([C@@H](O)CNC(C)(C)C)n1 [Compound 03-279],100 to 1000 nM
15,Cc1nc(NC2CC2)ccc1[C@@H](O)CNC(C)(C)C [Compound 03-274],10 to 100 nM
16,CC(C)(C)NC[C@H](O)c1cccc(N)n1 [Compound 03-98],> 1000 nM
17,Cc1cc([C@H](O)CNC(C)(C)C)nc(C(F)(F)F)c1 [Compound 03-20],100 to 1000 nM
18,CC(C)NC[C@@H](O)c1cccc(C(F)(F)F)n1 [Compound 03-36],> 1000 nM
19,Cc1ncc([C@@H](O)CNC(C)(C)C)c(C)n1 [Compound 03-261],100 to 1000 nM
20,CC(C)(C)NC[C@@H](O)c1cccc(-c2cccc(Cl)c2)n1 [Compound 03-130],10 to 100 nM

# Same assay, conditions: B2-AR; CHO-K cells; read-out: Average EC50 [Receptor subtype: B2-AR; Cell type: CHO-K]
row,Compound,EC50
1,CC(C)(C)NC[C@H](O)c1cccc(-c2ccc(F)cc2)n1 [Compound 03-145],< 10 nM
2,CC(C)(C)NC[C@@H](O)c1cccc(OC(F)(F)F)n1 [Compound 03-186],100 to 1000 nM
3,CC(C)(C)NC[C@@H](O)c1cccc(-n2cccc2)n1 [Compound 03-124],10 to 100 nM
4,CC(C)(C)NC[C@H](O)c1cccc(-c2cccc(F)c2)n1 [Compound 03-131],< 10 nM
5,CC(C)(C)NC[C@H](O)c1cccnc1N1CCCC1 [Compound 03-60],> 1000 nM
6,Cc1cc([C@H](O)CNC(C)(C)C)nc(C(F)(F)F)c1 [Compound 03-20],100 to 1000 nM
7,CC(C)NC[C@@H](O)c1cccc(C(F)(F)F)n1 [Compound 03-36],> 1000 nM
8,CC(C)(C)NC[C@@H](O)c1cccc(-c2cccc(Cl)c2)n1 [Compound 03-130],10 to 100 nM
